# Results as given in patent publication US20070249555A1, “Use of Atp Analogues for Treatment of Cardiovascular Diseases” (INSTITUT NATIONAL DE LA SANTE ET DE LA RECHERCHE MEDICALE …, priority 2004, published 2007).
# Legend:
# [1] = system: plain CHO-K1 cells; assay: forskolin-induced cAMP accumulation in plain CHO-K1 cells (control); format: cell-based; conditions: untransfected control cells
# [2] = biological target: human P2Y12 receptor (Homo sapiens, UniProt Q9H244); assay: forskolin-induced cAMP formation in hP2Y12-CHO-K1 cells; format: cell-based
# human P2Y12 receptor, sequence (Q9H244 whole entry, the tested form may be a part): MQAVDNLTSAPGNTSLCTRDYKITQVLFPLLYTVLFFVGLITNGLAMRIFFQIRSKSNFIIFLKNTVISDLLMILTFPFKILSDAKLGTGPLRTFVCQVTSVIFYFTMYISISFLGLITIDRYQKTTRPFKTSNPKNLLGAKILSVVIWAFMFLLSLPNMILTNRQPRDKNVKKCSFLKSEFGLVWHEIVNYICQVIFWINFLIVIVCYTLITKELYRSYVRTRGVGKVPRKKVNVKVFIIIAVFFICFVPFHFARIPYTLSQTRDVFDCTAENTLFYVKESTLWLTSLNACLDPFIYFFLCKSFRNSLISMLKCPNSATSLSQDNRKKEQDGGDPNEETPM
# Procedure: FIG. 2C: Effect ADP (▴), AR-C69931MX (●) and ADP in presence of AR-C69931MX (100 nM) (▪) on forskolin (FSK: 3 μM)-induced cAMP formation in hP2Y12-CHO-K1 cells. The cells were incubated with various concentrations of these agents for 12 min. Data are expressed in % of the value with forskolin alone and presented as mean ±S.E.M. of 3 (ADP) or 2 (AR-C69931MX) independent experiments, each performed in triplicates.
# The cyclic AMP assays was performed on CHO-K1 cell lines expressing recombinant P2Y receptors as follows.
# The plasmid of human P2Y12 receptor (hP2Y12-pEFIN5) was obtained from Euroscreen (Gosselies, Belgium) and was stably transfected into CHO-K1 cells by using the FuGENETM6 transfection reagent (Roche Applied Science, Mannheim, Germany). Transfected cells were selected using G418 (400 μg/ml). The hP2Y13-CHO-K1 and HP2Y12-CHO-K1 cells were grown in Ham'S F12 cell culture medium (Invitrogen-France) supplemented with fetal bovine serum (10%, v/v), penicillin (100 units/ml), streptomycin (100 μg/ml) and G418 (400 μg/ml).
# The stably transfected CHO-K1 cells (200,000 cells/dish) were seeded on 35-mm diameter cell culture dishes in complete medium one day before the experiment. […] Cyclic AMP was quantified by 125l radioimmunoassay, as described in Communi et al., J Biol Chem, 2001, 276: 41479-85.
# [3] = system: liver of P2Y1-/- C57BL/6J mice; assay: in situ TG-HDL2 endocytosis by perfused liver of P2Y1-/- mouse; format: in vivo; conditions: liver perfused in situ 10 min at 37° C., AR-C69931MX 10 μM
# Procedure: FIG. 4C: The liver from P2Y1^−/−C57BL/6J male mice (25 weeks old) was perfused in situ for 10 minutes at 37° C. in HBSS medium with 75 μg/ml of ^125I-TG-HDL2 in the presence of PBS (a) or AR-C69931MX 10 μM (b). ^125I radioactivity associated with the livers was determined (n>3); (*) (p<0.05) (unpaired t-test).
# The perfused mouse liver experiments were carried out on C57BL/6J male mice, 8 weeks old, (Charles River Cie) or P2Y1^−/− mouse, 25 weeks old. Mouse were anesthetized by intraperitoneal injections of 200 μl ketamine hydrochloride (Merial)-xylazine hydrochloride 2% (Bayer)-PBS (1:1:3 v/v). […] The livers were perfused in situ for 10 minutes at 37° C. in HBSS medium containing 75 μg/ml of ^125I-TG-HDL2 (5000 cpm/ng of proteins) or ^3H-cholesteryl-ether-TG-HDL2 (15000 dpm/mg of cholesteryl ester), with PBS apolipoprotein A-1 (ApoA-1, 10 μg/ml) or AR-C69931MX (10 μM).
# Livers were extensively washed at 4° C. in PBS and radioactivity associated per […] of liver was counted, (n=7 per group). Values represent means ±SEM, with p<0.05 (unpaired t-test).
smiles,measurement,setting,value
"CSCCNc1nc(SCCC(F)(F)F)nc2c1ncn2[C@@H]1O[C@H](COP(=O)(O)OP(=O)(O)C(Cl)(Cl)P(=O)(O)O)[C@@H](O)[C@H]1O [AR-C69931MX, N-[2-(methylthio)ethyl]-2-[(3,3,3-trifluoropropyl)thio]-5′-adenylic acid, monoanhydride with dichloromethylenebisphosphonic acid]",effect on cAMP accumulation in plain CHO-K1 cells,[1],no effect
same,effect on ADP inhibition of cAMP accumulation,[2]; AR-C69931MX 100 nM with ADP,shifted the ADP inhibition to higher concentrations
same,effect per se on cAMP accumulation by forskolin,"[2]; forskolin 3 μM, 12 min",no effect
same,increase of TG-HDL2 internalization by the liver above the control,[3],38%
